Assay results from US4147797A, “Spiro-furanohydantoin derivatives” (Pfizer Inc., priority 1978, dated 1979).

Assays:
aldose reductase = molecular target: T1, aldose reductase (Bos taurus, UniProt P16116); test: inhibition of aldose reductase enzyme activity (partially purified enzyme from calf lens); type: biochemical; conditions: read-out: 50% Inhibitory Concentration
T1 construct: partially purified aldose reductase enzyme obtained from calf lens; from tissue; host or cells: calf lens
Source text: The activity of the compounds of the present invention as agents for the control of chronic diabetic complications may be determined by a number of standard biological or pharmacological tests. Suitable tests include (1) measuring their ability to inhibit the enzyme activity of isolated aldose reductase and (2) measuring their ability to reduce or inhibit sorbitol accumulation in the sciatic nerve of acutely streptozotocinized (i.e., diabetic) rats. […] Pat. No. 3,821,383 and based on the procedure on Hayman et. al., Journal of Biological Chemistry, 240, 877 (1965). The substrate employed was partially purified aldose reductase enzyme obtained from calf lens.

[1] = system: sorbitol accumulation in the sciatic nerve of streptozotocinized (i.e., diabetic) rats; test: inhibition of sorbitol accumulation in the sciatic nerve of streptozotocinized (diabetic) rats; type: in vivo; conditions: 25 mg/kg oral at 4, 8 and 24 hours after streptozotocin; sorbitol measured 27 hours after induction of diabetes; compared to untreated animals
Description: The activity of the compounds of the present invention as agents for the control of chronic diabetic complications may be determined by a number of standard biological or pharmacological tests. Suitable tests include (1) measuring their ability to inhibit the enzyme activity of isolated aldose reductase and (2) measuring their ability to reduce or inhibit sorbitol accumulation in the sciatic nerve of acutely streptozotocinized (i.e., diabetic) rats.
The compounds of Examples 1 and 2 were tested for their ability to reduce or inhibit sorbitol accumulation in the sciatic nerve of streptozotocinized (i.e., diabetic) rats by the procedure essentially described in U.S. Pat. No. 3,821,383. In the present study, the amount of sorbitol accumulation in the sciatic nerves was measured 27 hours after induction of diabetes. The compounds were administered orally at the dose levels indicated at 4, 8 and 24 hours following the administration of streptozotocin. The results obtained in this manner are presented as the percent inhibition (%) obtained at a 25 mg/kg dose compared to the untreated animal standard (i.e., the untreated animal where sorbitol levels normally rise from approximately 50-100 mM/g. tissue to as high as 400 mM/g. tissue in the 27-hour test period): […]

SMILES: Cc1cc2c(o1)CCCC21NC(=O)NC1=O (stereo not shown) [Example 2, 2-methyl-spiro[cyclohexa(b)furan-4,4'-imidazolidine]-2',5'-dione]
- IC50 (aldose reductase): 100 µM
- Percent Inhibition at 25 mg/kg [1]: 2%

SMILES: O=C1NC(=O)C2(CCCc3occc32)N1 (stereo not shown) [Example 1, Spiro[cyclohexa(b)furan-4,4'-imidazolidine]-2',5'-dione]
- IC50 (aldose reductase): 100 µM
- Percent Inhibition at 25 mg/kg [1]: 46%
